# In patent US5622983A, “N-substituted cycloalkyl and polycycloalkyl α-substituted Trp-Phe- and phenethylamine derivatives” (Warner-Lambert Company, priority 1995, dated 1997):
# Tests used:
# [1] = Antagonism of intra-accumbens amphetamine hyperactivity (antipsychotic activity); format: in vivo, rat; details: 10 mg/kg intraperitoneal; amphetamine 20 μg
# Protocol: Male Sprague Dawley (CD) Bradford strain rats were used. The rats were housed in groups of five at a temperature of 21°±2° C. on a 12 hour light-dark cycle of lights-on between 07 hours 00 minutes and […]. Rats were fed CRM diet (Labsure) and allowed water ad libitum.
# Rats were anesthetized with chloral hydrate (400 mg/kg SC) and placed in a Kopf stereotaxic frame. Chronically indwelling guide cannulae (constructedof stainless steel tubing 0.65 mm diameter held bilaterally in Parspex holders) were implanted using standard stereotaxic techniques to terminate 3.5 mm above the center of the nucleus accumbens (Ant. 9.4, Vert. 0.0, Lat. 1.6) or 5.0 mm above the central nucleus of the amygdala (Ant. 5.8, Vert. -1.8, Lat. ±4.5) (atlas of De Groot, 1959). The guides were kept patent during a 14-day recovery period using stainless steel stylers, 0.3 mm diameter, which extended 0.5 mmbeyond the guide tips.
# Rats were manually restrained and the stylers removed. Intracerebral injection cannulae, 0.3 mm diameter, were inserted and drugs delivered in a volume of 0.5 μl over 5 seconds (a further 55 seconds was allowed for deposition) from Hamilton syringes attached via polythene tubing to the injection units. […]
# The abilities of the compounds (20) and (20A) to inhibit the hyperactivity caused by the injection of amphetamine into the nucleus accumbens of the rat was measured. […]
# [2] = Light/dark exploration test (anxiolytic activity); format: in vivo, mouse
# Protocol: In FIG. 2 the number of mice was 5 and the pretreatment time was 40 minutes. The compound was given p.o. in 0.1, 1, and 10 mg/kg doses.
# The apparatus was an open-topped box, 45 cm long, 27 cm wide, and 27 cm high, divided into a small (2/5) area and a large (3/5) area by a partition that extended 20 cm above the walls. There was a 7.5×7.5 cm opening in the partition at floor level. The small compartment was painted black and the large compartment white. The floor of each compartment was marked into 9 cm squares. The white compartment was illuminated by a 100-watt tungsten bulb 17 cm above the box and the black compartment by a similarly placed 60-watt red bulb. The laboratory was illuminated with red light.
# All tests were performed between 13 hundred hours, 0 minutes and 18 hundred hours, 0 minutes. Each mouse was tested by placing it in the center of the white area and allowing it to explore the novel environment for five minutes. Its behavior was recorded on videotape and the behavioral analysis was performed subsequently from the recording. Five parameters were measured: the latency to entry into the dark compartment, the time spent in each area, the number of transitions between compartments, the number of lines crossed in each compartment, and the number of rears in each compartment.
# Drugs were dissolved in water or saline and administered either subcutaneously, intraperitoneally, or by mouth (PO) via a stomach needle.
# [3] = Palatable Diet Feeding assay; format: in vivo, rat; details: dose producing 50% of the maximum effect possible (zero food intake)
# Protocol: In the Palatable Diet Feeding assay, adult male Hooded Lister rats weighing between 200-400 g were housed individually and trained to eat a palatable diet. This diet consisted of Nestles sweetened condensed milk, powdered rat food and rat water which when blended together set to a firm consistency. […] The intake of palatable diet was measured by weighing the food container before and after the 30-minute access period (limits of accuracy 0.1 g). Care was taken to collect and correct for any spillage of the diet. Rats had free access to pellet food and water except during the 30-minute test period.
# After the training period, dose-response curves were constructed for CCK8 and several representative compounds of the present invention (n=8-10 rats per dose level).
# [4] = 1 mg/kg SC, five-minute measurement periods
smiles,measurement,setting,value
"CC(Cc1c[nH]c2ccccc12)(NC(=O)OC1C2CC3CC(C2)CC1C3)C(=O)NCC(NC(=O)CCC(=O)O)c1ccccc1 (stereo not drawn) [Example 20, [R-(R*,R*)-4-[[2-[[3-(1H-indol-3-yl)-2-methyl-1-oxo-2-[[(tricyclo[3.3.1.1^3,7]dec-2-yloxy)carbonyl]amino]propyl]amino]-1-phenylethyl]amino]-4-oxobutanoic acid]",hyperactivity caused by intra-accumbens injection of amphetamine,[1],reduced the hyperactivity
same,time spent in the light area of the test box,[2]; 1 mg/kg PO,significantly (p <0.01) increased the time spent in the light area
same,crossings into the dark area,[2]; [4],24
same,crossings into the light area,[2]; [4],85
same,"anxiolytic activity, orally administered (FIG. 2)","[2]; p.o. 0.1, 1, and 10 mg/kg, pretreatment 40 minutes",effectiveness
same,anxiolytic activity by the subcutaneous route,[2]; subcutaneous,active
same,Inhibition of Feeding on Rat Palatable Diet Assay I.P. MPE50,[3],17.4 mg/kg
